Like-named read-outs stand apart in the source and are kept apart here.
Key:
METTL3 [1] = system: METTL3; set-up: method as in PMID 32159918; conditions: read-out: IC50 METTL3 activity, reader-based HTRF assay; cited from earlier work
METTL3 [2] = system: METTL3; set-up: method as in PMID 34431664; conditions: read-out: IC50 METTL3 inhibition, enzyme-based assays; cited from earlier work
METTL3 [3] = biological target: METTL3 (Homo sapiens, UniProt Q86U44); assay: Immunoblotting (Western blot) degradation of METTL3 in MV4-11 cells; assay type: cell-based; set-up: Following treatment, total cellular proteins were extracted using RIPA buffer; endogenous in cells; host or cells: MV4-11 (MV4.11) human AML cells, ATCC; conditions: MV4-11 cells, 1 µM, 24 h, Fig. 4A right
Protocol: (§1) All cell lines were maintained under standard conditions in a humidified atmosphere at 37 °C with 5% CO₂.
(§2) Western Blot Analysis: Following treatment, total cellular proteins were extracted using RIPA buffer (Auragene, Changsha, China). […] After washing, membranes were incubated with horseradish peroxidase (HRP)-conjugated secondary antibodies (anti-rabbit or anti-mouse IgG; 1:5000) for 2 hours at room temperature. Protein bands were visualized using an enhanced chemiluminescence (ECL) detection kit (Amersham Pharmacia), following the manufacturer's protocol. Band intensities were quantified using ImageJ software and normalized to ACTIN as a loading control. Data was analyzed using GraphPad Prism 9.

METTL14 = biological target: T1, METTL14 (Homo sapiens, UniProt Q9HCE5); assay: Immunoblotting (Western blot) degradation of METTL14 in MV4-11 cells; assay type: cell-based; conditions: MV4-11 cells, 1 µM, 24 h, Fig. 4A right
T1 construct: Following treatment, total cellular proteins were extracted using RIPA buffer; endogenous in cells; host or cells: MV4-11 (MV4.11) human AML cells, ATCC
Protocol: as §1, §2

[4] = system: primary mouse MLL-AF9/Flt3^Itd/+ model; set-up: method as in PMID 33902106; conditions: cited from earlier work
METTL3/14 [5] = biological target: METTL3/14; set-up: method as in PMID 33902106; conditions: read-out: METTL3/14 binding affinity (Kd); cited from earlier work
[6] = system: human AML patient-derived xenografts (PDX) models; set-up: method as in PMID 33902106; conditions: cited from earlier work
METTL3/14 [7] = system: METTL3/14; set-up: method as in PMID 33902106; conditions: read-out: IC50 METTL3/14 catalytic activity inhibition; cited from earlier work

METTL3 (Homo sapiens, UniProt Q86U44), sequence (Q86U44 2-580 limits assumed): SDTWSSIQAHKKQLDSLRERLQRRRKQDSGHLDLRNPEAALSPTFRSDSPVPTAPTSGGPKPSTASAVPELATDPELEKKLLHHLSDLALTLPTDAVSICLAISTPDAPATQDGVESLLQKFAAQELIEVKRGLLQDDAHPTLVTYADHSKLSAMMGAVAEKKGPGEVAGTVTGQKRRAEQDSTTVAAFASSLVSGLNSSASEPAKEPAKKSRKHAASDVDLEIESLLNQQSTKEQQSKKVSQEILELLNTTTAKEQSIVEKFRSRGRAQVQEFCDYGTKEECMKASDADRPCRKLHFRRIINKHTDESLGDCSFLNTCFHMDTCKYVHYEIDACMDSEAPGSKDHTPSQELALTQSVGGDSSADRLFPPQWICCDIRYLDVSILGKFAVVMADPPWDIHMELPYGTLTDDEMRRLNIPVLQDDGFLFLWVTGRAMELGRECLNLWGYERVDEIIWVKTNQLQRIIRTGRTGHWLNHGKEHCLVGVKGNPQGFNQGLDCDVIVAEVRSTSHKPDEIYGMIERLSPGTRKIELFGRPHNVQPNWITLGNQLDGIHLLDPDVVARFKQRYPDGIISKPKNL
METTL3 (Homo sapiens, UniProt Q86U44), sequence (Q9HCE5 whole entry partner): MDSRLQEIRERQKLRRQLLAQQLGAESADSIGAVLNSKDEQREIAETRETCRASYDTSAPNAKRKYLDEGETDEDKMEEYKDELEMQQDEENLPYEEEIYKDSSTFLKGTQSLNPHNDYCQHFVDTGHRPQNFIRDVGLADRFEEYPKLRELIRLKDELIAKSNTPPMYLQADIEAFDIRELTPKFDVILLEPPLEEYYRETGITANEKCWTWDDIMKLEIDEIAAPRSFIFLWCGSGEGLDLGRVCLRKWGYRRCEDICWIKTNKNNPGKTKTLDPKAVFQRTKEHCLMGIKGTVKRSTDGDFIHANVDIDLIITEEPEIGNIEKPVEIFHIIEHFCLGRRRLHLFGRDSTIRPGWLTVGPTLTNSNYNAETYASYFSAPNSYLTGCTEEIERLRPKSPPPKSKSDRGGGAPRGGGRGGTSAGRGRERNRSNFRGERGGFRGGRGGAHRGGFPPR
T1 sequence (Q9HCE5 whole entry): as the sequence (Q9HCE5 whole entry partner) above
T1 sequence (Q86U44 2-580 partner): as the sequence (Q86U44 2-580 limits assumed) above

Q: For `Nc1ncnc2c1ncn2[C@@H]1O[C@H](C(=O)NCCCCN2CCCC2)[C@@H](O)[C@H]1O` [Compound 1], which IC50 (METTL3 [1]) is on record?
A: 8700 nM

Q: What does the source list for `CNc1cc(N2CCC3(CC2)CN(c2cc(F)c(CN4CCC(C)(C)CC4)cc2F)CC(=O)N3)ncn1` [UZH2, reference compound]?
A: IC50 (METTL3 [2]): 5 nM; degradation of METTL3 at 1 µM (in words) (METTL3 [3]): not degraded; degradation of METTL14 at 1 µM (in words) (METTL14): not degraded

Q: Which results are given for STM2457?
A: anti-leukemic effect [4]: anti-leukemic effect; Kd (METTL3/14 [5]): 1.4 nM; anti-leukemic effect [6]: anti-leukemic effect; IC50 (METTL3/14 [7]): 16.9 nM

Source: PMC12615518, “Discovery of CRBN-recruiting PROTAC degraders of the METTL3-METTL14 complex” (Medicinal Chemistry Research, 2025)
